Where two headings read alike, the source gives them in different places.
Experiments:
A/HK/7/87 = assay: microbe, parasite or virus in culture; assay type: cell-based, influenza A virus; settings: for EC90: Influenza A virus, MDCK, 24 h, read-out: Activity against A/HK/7/87 EC90
A/M2 wt = A/M2 wt (Influenza A virus, UniProt P0DOF5); settings: cited from earlier work
MDCK cells [1] = system: MDCK cells
[2] = system: Influenza A/H1N1 (A/PR/8/34); assay type: cell-based, influenza A virus
MDCK cells [3] = system: MDCK cells; remark: listed apart in the source
[4] = read-out: Antiviral EC50 Influenza A/H1N1 CPE
[5] = read-out: Antiviral EC50 Influenza A/H1N1 MTS
[6] = MDCK, minimal alterations in cell morphology after 72 hr
[7] = minimal alterations in cell morphology after 24 hr incubation

A/M2 wt, sequence (P0DOF5 whole entry): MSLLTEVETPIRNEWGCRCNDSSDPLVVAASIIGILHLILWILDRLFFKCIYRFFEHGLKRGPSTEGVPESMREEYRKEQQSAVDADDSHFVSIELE

Row | SMILES | Activity against A/HK/7/87 EC99 (A/HK/7/87) [µM] | EC50 [2, 4] [µM] | EC50 [2, 5] [µM] | Cytotoxicity at 72 hr MCC (minimum cytotoxic concentration) (MDCK cells [3]; dog) [µM] | other results
1 | NC12CC3CC(CC(C3)C1)C2 [Amantadine, amantadine, reference compound] |  |  |  |  | Activity against A/HK/7/87 EC99 (A/HK/7/87; listed as Amt): ~ 1 μM
2 | NC12C3CCC4C3C3C(CCC31)C42 [Compound 8] |  |  |  |  | Activity against the wt A/M2 channel (in words) (A/M2 wt): did not inhibit
3 | NC(=O)c1ncn([C@@H]2O[C@H](CO)[C@@H](O)[C@H]2O)n1 [Ribavirin, reference compound] | 11 |  |  |  | Cytotoxicity at 24 hr MCC (MDCK cells [1]; dog): >100 µM
4 | Cl.N=C(N)N1CC23CC4CC2(CC4C3)C1 [Compound 16b, 3-Amidino-3-azatetracyclo[5.2.1.1^5,8.0^1,5]undecane hydrochloride] | ≥38 | > 50 | > 50 |  | Cytotoxicity at 24 hr MCC (MDCK cells [1]; dog): >50 µM
5 | C1C2C1C1C3C4C5C6CC6C4C14CNCC54C23 (centres unmarked) [Compound 11] |  |  |  |  | Activity against the wt A/M2 channel (in words) (A/M2 wt): promising activity
6 | Cl.N=C(N)N1CC23CC45CCCCC4(C2)CC3(C1)C5 [Compound 16d, 12-Amidino-12-azapentacyclo[6.5.1.1^3,10.0^1,10.0^3,8]pentadecane hydrochloride] | >2 | > 100 | > 100 | 4.0 | EC90 (A/HK/7/87): < 1 µM; Cytotoxicity at 24 hr MCC (MDCK cells [1]; dog): ≥10 µM
7 | CC12CC34CN(C(=N)N)CC3(C1)CC2(C)C4.Cl [Compound 16a, 3-Amidino-7,8-dimethyl-3-azatetracyclo[5.2.1.1^5,8.0^1,5]undecane hydrochloride] | 0.79 | > 100 | > 100 | 4 | EC90 (A/HK/7/87): < 1 µM; Cytotoxicity at 24 hr MCC (MDCK cells [1]; dog): >50 µM
8 | CN1CC23CC4CC2(CC4C3)C1.Cl [Compound 15b, 3-Methyl-3-azatetracyclo[5.2.1.1^5,8.0^1,5]undecane hydrochloride] |  | > 100 | > 100 | ≥100 | 
9 | C1NCC23CC4CC12CC4C3.Cl [Compound 14b, 3-azatetracyclo[5.2.1.1^5,8.0^1,5]undecane hydrochloride] |  | > 100 | > 100 | 100 | 
10 | C1CCC23CC45CNCC4(CC2(C1)C5)C3.O=C(O)C(O)C(O)C(=O)O [Compound 14d, 12-Azapentacyclo[6.5.1.1^3,10.0^1,10.0^3,8]pentadecane (2R,3R)-tartrate] | >10 | > 100 | > 100 |  | EC90 (A/HK/7/87): < 1 µM; Cytotoxicity at 72 hr MCC (minimum cytotoxic concentration) (MDCK cells [3]; [6]): 4.0 µM; Cytotoxicity at 24 hr MCC (MDCK cells [1]; [7]): >50 µM
11 | NCC12C3CCC4C3C3C(CCC31)C42 [Compound 9] |  |  |  |  | Activity against the wt A/M2 channel (in words) (A/M2 wt): did not inhibit
12 | CN1CC23CC4(C)CC2(C1)CC4(C)C3.Cl [Compound 15a, 3,7,8-Trimethyl-3-azatetracyclo[5.2.1.1^5,8.0^1,5]undecane hydrochloride] |  | > 100 | > 100 | ≥20 | 
13 | CC12CC34CNCC3(C1)CC2(C)C4.Cl [Compound 14a, 7,8-Dimethyl-3-azatetracyclo[5.2.1.1^5,8.0^1,5]undecane hydrochloride] |  | > 100 | > 100 | 100 | 
14 | CC(N)C12CC3CC(CC(C3)C1)C2 (centres unmarked) [Rimantadine, rimantadine, reference compound] | >4 |  |  |  | Cytotoxicity at 72 hr MCC (minimum cytotoxic concentration) (MDCK cells [3]; [6]): 500 µM; Cytotoxicity at 24 hr MCC (MDCK cells [1]; [7]): ≥500 µM
15 | C1=CC2C3C4C5C=CC4C24CNCC54C13 [Compound 10] |  |  |  |  | Activity against the wt A/M2 channel (in words) (A/M2 wt): promising activity

From article PMC3889466 (Journal of medicinal chemistry, 2013)
